Measured values from the supplement of paper PMC10307832.

Key:
Assay in all cases: relative viability (nuclei count vs DMSO), 5 days (fraction); higher = more cells survive
Vismodegib + Alpelisib = compound: CS(=O)(=O)c1ccc(C(=O)Nc2ccc(Cl)c(-c3ccccn3)c2)c(Cl)c1 [Vismodegib] + Cc1nc(NC(=O)N2CCC[C@H]2C(N)=O)sc1-c1ccnc(C(C)(C)C(F)(F)F)c1 [Alpelisib] (partner 2 µM)
Method in brief: (§1)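 Lung cancer cell lines in 1536-well plates got either a single drug or a fixed anchor-drug dose together with five library-drug doses (not always all listed) in √10 steps, by pin tool, on the day after seeding. Nuclei were counted after 5 days, and relative viability is the treated-to-vehicle ratio of nuclei counts. Values are medians of duplicate plates.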

Ruxolitinib + Luminespib = compound: N#CC[C@H](C1CCCC1)n1cc(-c2ncnc3[nH]ccc23)cn1 [Ruxolitinib] + CCNC(=O)c1noc(-c2cc(C(C)C)c(O)cc2O)c1-c1ccc(CN2CCOCC2)cc1 [Luminespib] (partner 0.01 µM)
Method in brief: as §1

VE-821 + Palbociclib = compound: CS(=O)(=O)c1ccc(-c2cnc(N)c(C(=O)Nc3ccccc3)n2)cc1 [VE-821] + CC(=O)c1c(C)c2cnc(Nc3ccc(N4CCNCC4)cn3)nc2n(C2CCCC2)c1=O [Palbociclib] (partner 0.5 µM)
Method in brief: as §1

Vismodegib + Trametinib = compound: CS(=O)(=O)c1ccc(C(=O)Nc2ccc(Cl)c(-c3ccccn3)c2)c(Cl)c1 [Vismodegib] + CC(=O)Nc1cccc(-n2c(=O)n(C3CC3)c(=O)c3c(Nc4ccc(I)cc4F)n(C)c(=O)c(C)c32)c1 [Trametinib] (partner 0.02 µM)
Method in brief: as §1

Cell Line | relative viability (Vismodegib + Alpelisib; first compound 0.08 µM) | relative viability (Vismodegib + Alpelisib; first compound 0.253 µM) | relative viability (Vismodegib + Alpelisib; first compound 0.8 µM) | relative viability (Vismodegib + Alpelisib; first compound 2.53 µM) | relative viability (Vismodegib + Alpelisib; first compound 8 µM) | relative viability (Ruxolitinib + Luminespib; first compound 0.08 µM) | relative viability (Ruxolitinib + Luminespib; first compound 0.253 µM) | relative viability (Ruxolitinib + Luminespib; first compound 0.8 µM) | relative viability (Ruxolitinib + Luminespib; first compound 2.53 µM) | relative viability (Ruxolitinib + Luminespib; first compound 8 µM) | relative viability (VE-821 + Palbociclib; first compound 0.08 µM) | relative viability (VE-821 + Palbociclib; first compound 0.253 µM) | relative viability (VE-821 + Palbociclib; first compound 0.8 µM) | relative viability (VE-821 + Palbociclib; first compound 2.53 µM) | relative viability (VE-821 + Palbociclib; first compound 8 µM) | relative viability (Vismodegib + Trametinib; first compound 0.08 µM) | relative viability (Vismodegib + Trametinib; first compound 0.253 µM) | relative viability (Vismodegib + Trametinib; first compound 0.8 µM) | relative viability (Vismodegib + Trametinib; first compound 2.53 µM) | relative viability (Vismodegib + Trametinib; first compound 8 µM)
EPLC-272H | 0.894 | 0.888 | 0.872 | 1 | 0.931 | 0.632 | 0.224 | 0.241 | 0.295 | 0.174 | 0.342 | 0.313 | 0.295 | 0.33 | 0.326 | 0.276 | 0.269 | 0.246 | 0.282 | 0.297
NCI-H1792 | 0.608 | 0.687 | 0.615 | 0.667 | 0.647 | 0.407 | 0.447 | 0.473 | 0.517 | 0.434 | 0.725 | 0.698 | 0.664 | 0.762 | 0.66 | 0.392 | 0.447 | 0.361 | 0.376 | 0.398
LXF-289 | 1 | 0.993 | 1.07 | 0.994 | 1.04 | 0.608 | 0.784 | 0.732 | 0.674 | 0.628 | 0.583 | 0.606 | 0.716 | 0.677 | 0.712 | 0.675 | 0.654 | 0.723 | 0.664 | 0.648
NCI-H460 | 0.542 | 0.495 | 0.552 | 0.434 | 0.435 | 0.0343 | 0.0362 | 0.0405 | 0.0294 | 0.027 | 0.203 | 0.166 | 0.159 | 0.0414 | 0.0344 | 0.175 | 0.132 | 0.127 | 0.141 | 0.107
NCI-H2023 | 0.584 | 0.534 | 0.626 | 0.546 | 0.495 | 0.73 | 0.74 | 0.674 | 0.438 | 0.568 | 0.452 | 0.346 | 0.317 | 0.297 | 0.124 | 0.568 | 0.538 | 0.605 | 0.47 | 0.498
SK-LU-1 | 1.07 | 0.987 | 1.07 | 0.894 | 1.06 | 0.185 | 0.204 | 0.255 | 0.182 | 0.207 | 0.408 | 0.424 | 0.323 | 0.376 | 0.261 | 0.441 | 0.473 | 0.54 | 0.441 | 0.444
NCI-H1734 | 0.651 | 0.586 | 0.661 | 0.63 | 0.719 | 0.167 | 0.197 | 0.198 | 0.162 | 0.185 | 0.462 | 0.363 | 0.325 | 0.337 | 0.532 | 0.627 | 0.566 | 0.636 | 0.689 | 0.817
PC-3 [JPC-3] | 0.971 | 1.04 | 1.04 | 0.941 | 0.972 | 0.663 | 0.677 | 0.755 | 0.579 | 0.734 | 0.266 | 0.478 | 0.58 | 0.54 | 0.56 | 0.695 | 0.713 | 0.636 | 0.615 | 0.729
